Reference: US7208303B2, “Bacterial nitric oxide synthases and uses thereof” (Cornell Research Foundation, Inc., priority 2003, dated 2007)

Key:
[1] = system: thaxtomin A production by S. turgidiscabies; test: Thaxtomin A production by S. turgidiscabies cultures in presence of NOS inhibitors (HPLC); assay type: cell-based, Streptomyces turgidiscabies; conditions: FIG. 4C, n=6
Procedure: (§1) Sonicated cell lysates from 3 mL cultures were run on 12% SDS-PAGE gels after 2.5 hr induction with 0.1 mM IPTG. […] The NOS intermediate N^ω-hydroxy-L-arginine (2 mM) and hydrogen peroxide (4 mM) were reacted with 20 μL of cell lysates shown in FIG. 4A and assayed for nitrite with the Griess reagents after 15 min.
(§2) Streptomyces turgidiscabies cultures were grown in oat bran broth or oat meal broth (Healy et al., Mol. Micro. 38:794–804 (2000); and Goyer et al., Phytopathology 88:442–445 (1998), which are hereby incorporated by reference in their entirety) inoculated with spores. After shaking at 150 rpm and 25° C. for 5–9 days the cultures were filtered and dry weight of the mycelia was measured. Thaxtomin was extracted from the filtrate with ethyl acetate, dried, redissolved in methanol, and quantified using HPLC (column: 5 μm C18; 250×4.6 mm; mobile phase: MeCN: H20:TFA (40:60:0.1)). In experiments investigating the suppression of thaxtomin production in the presence of L-NAME, this NOS inhibitor was dissolved in water, filter-sterilized, and added at the time of inoculation.
For stNOS to be responsible for thaxtomin nitration, stNOS should have NO synthase activity. Further, this activity and thaxtomin production should be arginine dependent. As predicted, overexpressed stNOS in E. coli produced nitrite from N-hydroxy-L-arginine in a standard NOS assay (FIGS. 4A–4B). N-hydroxy-L-arginine is an intermediate unique to the NOS catalytic reaction and nitrite represents the end product of NO reacting in oxygenated solution. NO synthase activity of the recombinant stNOS was inhibited by the selective NOS inhibitor nitro-L-arginine (FIG. 4B); nitro-L-arginine is the active form of Nitro-L-arginine methyl ester (NAME). NOS inhibitors were also evaluated for their effect on thaxtomin A production by S. turgidiscabies. […]

S. turgidiscabies = test: Bacterial growth of S. turgidiscabies cultures (dry weight of mycelia); assay type: cell-based, Streptomyces turgidiscabies; conditions: FIG. 4C
Procedure: as §1, §2

## CNC(=N)NCCC[C@H](N)C(=O)O [NMMA, NG-monomethyl-L-arginine]
[1]; 510 μM
  toxin production: inhibit toxin product
S. turgidiscabies; 510 μM
  bacterial growth: without affecting bacterial growth

## O=[N+]([O-])c1cccc2cn[nH]c12 [7-IN, 7-nitroindazole]
[1]; 1.2 μM
  toxin production: inhibit toxin product
S. turgidiscabies; 1.2 μM
  bacterial growth: without affecting bacterial growth

## N=C(N)NN [AG, aminoguanidine]
[1]; 270 μM
  toxin production: inhibit toxin product
S. turgidiscabies; 270 μM
  bacterial growth: without affecting bacterial growth
